Columns and labels:
[1] = test system: Human rhinovirus sp.; experiment: Antiviral activity against rhinoviral 2 serotype in a plaque inhibition assay using monolayers of M-HeLa cells; format: functional, organism-based
[2] = test system: Human rhinovirus sp.; experiment: Antiviral activity against rhinoviral 30 serotype in a plaque inhibition assay using monolayers of M-HeLa cells; format: functional, organism-based
[3] = test system: Human rhinovirus sp.; experiment: Antiviral activity against rhinoviral 8 serotype in a plaque inhibition assay using monolayers of M-HeLa cells; format: functional, organism-based
[4] = test system: Human rhinovirus sp.; experiment: Antiviral activity against rhinoviral 16 serotype in a plaque inhibition assay using monolayers of M-HeLa cells; format: functional, organism-based
[5] = test system: Human rhinovirus sp.; experiment: Antiviral activity against rhinoviral 12 serotype in a plaque inhibition assay using monolayers of M-HeLa cells; format: functional, organism-based
[6] = test system: Human rhinovirus sp.; experiment: Antiviral activity against rhinoviral-1A serotype in a plaque inhibition assay using monolayers of M-HeLa cells; format: functional, organism-based
[7] = test system: Human rhinovirus sp.; experiment: Antiviral activity against rhinoviral-1B serotype in a plaque inhibition assay using monolayers of M-HeLa cells; format: functional, organism-based
[8] = test system: Human rhinovirus sp.; experiment: Percent inhibitory activity at 8 uM against rhinoviral 13 serotype in a plaque inhibition assay using monolayers of M-HeLa cells; format: functional
[9] = test system: Human rhinovirus sp.; experiment: Percent inhibitory activity at 8 uM against rhinoviral 14 serotype in a plaque inhibition assay using monolayers of M-HeLa cells; format: functional
[10] = test system: Human rhinovirus sp.; experiment: Percent inhibitory activity at 8 uM against rhinoviral 15 serotype in a plaque inhibition assay using monolayers of M-HeLa cells; format: functional
[11] = Percent inhibitory activity at 8 uM against rhinoviral 18 serotype in a plaque inhibition assay using monolayers of M-HeLa cells; format: functional, Homo sapiens
[12] = test system: Human rhinovirus sp.; experiment: Percent inhibitory activity at 8 uM against rhinoviral 19s erotype in a plaque inhibition assay using monolayers of M-HeLa cells; format: functional
[13] = test system: Human rhinovirus sp.; experiment: Percent inhibitory activity at 8 uM against rhinoviral 21 serotype in a plaque inhibition assay using monolayers of M-HeLa cells; format: functional
[14] = test system: Human rhinovirus sp.; experiment: Percent inhibitory activity at 8 uM against rhinoviral 29 serotype in a plaque inhibition assay using monolayers of M-HeLa cells; format: functional
[15] = test system: Human rhinovirus sp.; experiment: Percent inhibitory activity at 8 uM against rhinoviral 31 serotype in a plaque inhibition assay using monolayers of M-HeLa cells; format: functional
[16] = test system: Human rhinovirus sp.; experiment: Percent inhibitory activity at 8 uM against rhinoviral 3 serotype in a plaque inhibition assay using monolayers of M-HeLa cells; format: functional
[17] = test system: Human rhinovirus sp.; experiment: Percent inhibitory activity at 8 uM against rhinoviral 4 serotype in a plaque inhibition assay using monolayers of M-HeLa cells; format: functional
[18] = test system: Human rhinovirus sp.; experiment: Antiviral activity against rhinoviral 5 serotype in a plaque inhibition assay using monolayers of M-HeLa cells; format: functional, organism-based
[19] = test system: Human rhinovirus sp.; experiment: Antiviral activity against rhinoviral 9 serotype in a plaque inhibition assay using monolayers of M-HeLa cells; format: functional, organism-based
[20] = test system: Human rhinovirus sp.; experiment: Antiviral activity against rhinoviral 29 serotype in a plaque inhibition assay using monolayers of M-HeLa cells; format: functional, organism-based
[21] = test system: Human rhinovirus sp.; experiment: Antiviral activity against rhinoviral 4 serotype in a plaque inhibition assay using monolayers of M-HeLa cells; format: functional, organism-based
[22] = test system: Human rhinovirus sp.; experiment: Antiviral activity against rhinoviral 14 serotype in a plaque inhibition assay using monolayers of M-HeLa cells; format: functional, organism-based
[23] = test system: Human rhinovirus sp.; experiment: Antiviral activity against rhinoviral 15 serotype in a plaque inhibition assay using monolayers of M-HeLa cells; format: functional, organism-based
[24] = test system: Human rhinovirus sp.; experiment: Antiviral activity against rhinoviral-19 serotype in a plaque inhibition assay using monolayers of M-HeLa cells; format: functional, organism-based
[25] = test system: Human rhinovirus sp.; experiment: Antiviral activity against rhinoviral 21 serotype in a plaque inhibition assay using monolayers of M-HeLa cells; format: functional, organism-based
[26] = test system: Human rhinovirus sp.; experiment: Percent inhibitory activity at 8 uM against rhinoviral 30 serotype in a plaque inhibition assay using monolayers of M-HeLa cells; format: functional
[27] = test system: Human rhinovirus sp.; experiment: Antiviral activity against rhinoviral 31 serotype in a plaque inhibition assay using monolayers of M-HeLa cells; format: functional, organism-based
[28] = test system: Human rhinovirus sp.; experiment: Antiviral activity against rhinoviral 18 serotype in a plaque inhibition assay using monolayers of M-HeLa cells; format: functional, organism-based
[29] = test system: Human rhinovirus sp.; experiment: Percent inhibitory activity at 8 uM against rhinoviral 5 serotype in a plaque inhibition assay using monolayers of M-HeLa cells; format: functional
[30] = Percent inhibitory activity at 8 uM against rhinoviral 2 serotype in a plaque inhibition assay using monolayers of M-HeLa cells; format: functional, Homo sapiens
[31] = test system: Human rhinovirus sp.; experiment: Antiviral activity against rhinoviral 19 serotype in a plaque inhibition assay using monolayers of M-HeLa cells; format: functional, organism-based
[32] = Antiviral activity against rhinoviral 13 serotype in a plaque inhibition assay using monolayers of M-HeLa cells; format: functional, cell-based; conditions: Homo sapiens
[33] = test system: Human rhinovirus sp.; experiment: Antiviral activity against rhinoviral 3 serotype in a plaque inhibition assay using monolayers of M-HeLa cells; format: functional, organism-based
[34] = test system: Human rhinovirus sp.; experiment: Antiviral activity against rhinoviral-18 serotype in a plaque inhibition assay using monolayers of M-HeLa cells; format: functional, organism-based
[35] = Percent inhibitory activity at 8 uM against rhinoviral 8 serotype in a plaque inhibition assay using monolayers of M-HeLa cells; format: functional, Homo sapiens
[36] = Percent inhibitory activity at 10 uM against rhinoviral 5 serotype in a plaque inhibition assay using monolayers of M-HeLa cells; format: functional, Homo sapiens
[37] = Percent inhibitory activity at 4 uM against rhinoviral-1A serotype in a plaque inhibition assay using monolayers of M-HeLa cells; format: functional, Homo sapiens
[38] = Percent inhibitory activity at 4 uM against rhinoviral 2 serotype in a plaque inhibition assay using monolayers of M-HeLa cells; format: functional, Homo sapiens

Row | SMILES | IC50 [1] | IC50 [2] | IC50 [3] | IC50 [4] | IC50 [5] | IC50 [6] | IC50 [7] | Inhibition [8] | Inhibition [10] | Inhibition [12] | Inhibition [13] | Inhibition [15] | Inhibition [16] | IC50 [18] | IC50 [19] | IC50 [20] | IC50 [21] | IC50 [22] | IC50 [23] | IC50 [28] | further results
1 | CN(C)c1nc(C(F)(F)F)nc2c1ncn2Cc1ccc(Cl)cc1Cl | 6.9 µM | 11 µM | 8.5 µM | 850 nM | 11 µM | 580 nM | 120 nM | 20% | 10% | 40% | 30% | 28% | 17% | > 8 µM | 930 nM | – | – | – | – | – | Inhibition [9]: 35%; Inhibition [11]: 32 µM; Inhibition [14]: 15%; Inhibition [17]: 25%
2 | Cc1cc(Cn2cnc3c(N(C)C)nc(C(F)(F)F)nc32)ccc1Cl | 5.2 µM | – | > 8 µM | 840 nM | 3.3 µM | 1400 nM | 120 nM | 13% | – | – | – | – | 44% | > 8 µM | 1000 nM | 7 µM | 7.6 µM | 8 µM | 6.1 µM | – | IC50 [24]: 7.7 µM; Inhibition [11]: 28 µM; IC50 [25]: 6.3 µM; Inhibition [26]: 31%; IC50 [27]: 9 µM
3 | CN(C)c1nc(C(F)(F)F)nc2c1ncn2Cc1ccc(F)cc1 | – | 9 µM | 8 µM | 1300 nM | 8 µM | 1300 nM | 50 nM | 42% | – | 22% | 34% | 47% | 35% | – | 870 nM | 4 µM | 3.8 µM | 7.1 µM | 8.7 µM | 8.9 µM | Inhibition [29]: 11%; Inhibition [30]: 27%
4 | Cc1ccc(Cn2cnc3c(N(C)C)nc(C(F)(F)F)nc32)cc1C | 5 µM | 8.1 µM | 5.1 µM | 780 nM | 4 µM | 1700 nM | 170 nM | – | – | – | 16% | – | 39% | > 8 µM | 650 nM | 5 µM | 6 µM | 6.6 µM | 2 µM | 8.2 µM | IC50 [31]: 7.1 µM; IC50 [32]: > 8 µM; IC50 [27]: 13 µM
5 | Cc1ccccc1Cn1cnc2c(N(C)C)nc(C(F)(F)F)nc21 | – | 9 µM | – | 1900 nM | 6.5 µM | 8000 nM | 290 nM | 33% | 14% | 19% | 18% | 47% | – | – | 1900 nM | 6.2 µM | – | – | – | – | IC50 [33]: 7.5 µM; IC50 [34]: 7.7 µM; Inhibition [9]: 31%; Inhibition [17]: 22%; Inhibition [29]: 40%; Inhibition [35]: 44%
6 | CN(C)c1nc(C(F)(F)F)nc2c1ncn2Cc1ccc([N+](=O)[O-])cc1 | 8.3 µM | – | 8.1 µM | 1500 nM | 8 µM | – | 70 nM | 13% | 31% | – | 28% | 37% | 43% | – | 5600 nM | 10 µM | 4.1 µM | 8.6 µM | – | 5.9 µM | IC50 [31]: 8.8 µM; Inhibition [36]: 32%; Inhibition [37]: 38 µM; Inhibition [26]: 28%
7 | CN(C)c1nc(C(F)(F)F)nc2c1ncn2Cc1ccc(C(F)(F)F)cc1 | – | – | > 8 µM | 1200 nM | 5.2 µM | 910 nM | 110 nM | 22% | – | – | – | – | 44% | > 8 µM | 2200 nM | 7.2 µM | 6 µM | 7 µM | 4.2 µM | 6.6 µM | IC50 [31]: 5.2 µM; Inhibition [38]: 23 µM; IC50 [25]: 8.2 µM; Inhibition [26]: 40%; IC50 [27]: 6 µM
